Test results: patent publication US7135466B2 (Kirin Beer Kabushiki Kaisha, priority 1999, dated 2006)

What follows are compounds tested against T1, PDGF-Ra (Homo sapiens, UniProt P16234) (assay: Inhibitory activity against PDGF-Ra phosphorylation by PDGF-AA stimulation using G292). Conditions: Pharmacological Test Example 1; > means inhibition at indicated concentration not more than 50%, < and << not less than 50%; read-out: PDGF (E) IC50.
T1 construct: host or cells: G-292 human osteosarcoma cells
T1 sequence (P16234 24-1089): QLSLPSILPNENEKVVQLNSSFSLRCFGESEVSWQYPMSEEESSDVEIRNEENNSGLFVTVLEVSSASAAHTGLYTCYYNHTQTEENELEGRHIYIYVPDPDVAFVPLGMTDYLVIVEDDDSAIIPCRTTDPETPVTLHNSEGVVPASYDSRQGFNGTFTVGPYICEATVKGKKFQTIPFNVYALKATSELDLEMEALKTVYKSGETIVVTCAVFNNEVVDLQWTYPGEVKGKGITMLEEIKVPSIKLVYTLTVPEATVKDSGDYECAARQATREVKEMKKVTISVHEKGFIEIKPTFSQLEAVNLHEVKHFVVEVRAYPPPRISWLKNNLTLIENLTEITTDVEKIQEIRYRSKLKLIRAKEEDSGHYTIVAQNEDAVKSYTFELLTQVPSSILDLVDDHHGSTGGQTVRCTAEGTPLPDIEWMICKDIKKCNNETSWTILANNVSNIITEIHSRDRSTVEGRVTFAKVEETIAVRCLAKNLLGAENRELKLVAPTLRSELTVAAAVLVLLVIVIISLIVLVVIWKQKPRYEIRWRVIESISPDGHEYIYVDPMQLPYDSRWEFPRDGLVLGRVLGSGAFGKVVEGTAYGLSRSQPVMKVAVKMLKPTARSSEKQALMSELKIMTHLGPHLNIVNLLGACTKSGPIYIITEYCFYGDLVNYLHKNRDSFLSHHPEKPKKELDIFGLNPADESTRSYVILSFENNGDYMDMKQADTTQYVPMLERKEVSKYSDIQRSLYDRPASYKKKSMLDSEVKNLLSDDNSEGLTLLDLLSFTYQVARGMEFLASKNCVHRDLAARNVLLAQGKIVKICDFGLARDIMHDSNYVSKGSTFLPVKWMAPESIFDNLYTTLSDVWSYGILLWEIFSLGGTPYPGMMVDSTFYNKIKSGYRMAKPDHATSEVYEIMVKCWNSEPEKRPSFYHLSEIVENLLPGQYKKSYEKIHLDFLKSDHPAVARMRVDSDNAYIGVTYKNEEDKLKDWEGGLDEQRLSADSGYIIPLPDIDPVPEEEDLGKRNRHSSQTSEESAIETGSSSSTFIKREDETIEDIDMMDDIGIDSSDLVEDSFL
Assay type: cell-based
Description: Measurement of Inhibitory Activity Against PDGF-Ra Phosphorylation by PDGF-AA Stimulation Using G292
G-292 human osteosarcoma cells (Dainippon Pharmaceutical Co. Ltd.) were cultured in a DMEM medium (Dainippon Pharmaceutical Co. Ltd.) containing 10% FBS within an incubator containing 5% carbon dioxide until 80% confluent, and the cells were planted at 3×10^4 cells per well in 96-well flat-bottom plates in the same medium containing 0.1% FBS. After cultivation at 37° C. overnight, a solution of a test compound in dimethyl sulfoxide was added to each well, and a reaction was allowed to proceed at 37° C. for one hr.
After the reaction of the test compound, PDGF-AA (Upstate) was added to 50 ng/ml, and the cells were stimulated at 37° C. for 5 min. Thereafter, the cells were solubilized and shaken at room temperature for 20 min.
This solubilized cell solution was transferred to a 96-well plate coated with aniti-phosphotyrosine antibody PY-20, and a reaction was allowed to proceed at 4° C. overnight. Anti-PDGF-Ra (c-20) (Santa Cruz) was added as a primary antibody, and a reaction was allowed to proceed for one hr. GAR (Anti-rabbit Ig, horseradish peroxidase, Amersham) was then added as a secondary antibody, and a reaction was allowed to proceed for one hr. Color development was carried out using a color development kit for peroxidase (Sumitomo Bakelite Co., Ltd.), and the absorbance was measured at 450 nm.

| Compound | IC50 [µM] |
| --- | --- |
| COc1cc2ncnc(Oc3ccc(NC(=O)OCCCSc4ccc(C(C)(C)C)cc4)cc3)c2cc1OC [Example 75, 3-{[4-(Tert-butyl)phenyl]sulfanyl}propyl N-{4-[(6,7-dimethoxy-4-quinazolinyl)oxy]phenyl}carbamate] | 0.025 |
| COc1cc2ncnc(Oc3ccc(NC(=O)OC(C)c4ccccc4Br)c(Cl)c3)c2cc1OC (stereo not shown) [Example 116, 1-(2-Bromophenyl)ethyl N-{2-chloro-4-[(6,7-dimethoxy-4-quinazolinyl)oxy]phenyl}carbamate] | 0.031 |
| COc1cc2ncnc(Oc3ccc(NC(=O)Sc4ccc(Cl)cc4C)cc3)c2cc1OC [Example 179, 4-Chloro-2-methylphenyl{4-[(6,7-dimethoxy-4-quinazolinyl)oxy]anilino}methanethioate] | 0.07 |
| COc1cc2nccc(Oc3ccc(NC(=O)OC(C)c4cccc(OC(F)(F)F)c4)cc3)c2cc1OC (stereo not shown) [Example 180, 1-[3-(Trifluoromethoxy)phenyl]ethyl N-{4-[(6,7-dimethoxy-4-quinolyl)oxy]phenol}carbamate] | 0.063 |
| COc1cc2nccc(Oc3cc(C)c(NC(=O)OC(C)c4cccc(OC(F)(F)F)c4)cc3C)c2cc1OC (stereo not shown) [Example 182, 1-[3-(Trifluoromethoxy)phenyl]ethyl N-{4-[(6,7-dimethoxy-4-quinolyl)oxy]-2,5-dimethylphenyl}carbamate] | > 0.1 |
| COc1cc2nccc(Oc3ccc(NC(=O)OCCN(C)C)c(C)c3C)c2cc1OC [Example 189, 2-(Dimethylamino)ethyl N-{4-[(6,7-dimethoxy-4-quinolyl)oxy]-2,3-dimethylphenyl}carbamate] | 0.057 |
| COc1cc2nccc(Oc3cc(C)c(NC(=O)OCCN(C)C)cc3C)c2cc1OC [Example 190, 2-(Dimethylamino)ethyl N-{4-[(6,7-dimethoxy-4-quinolyl)oxy]-2,5-dimethylphenyl}carbamate] | > 0.1 |
| COc1cc2nccc(Oc3ccc(NC(=O)OCCCCN(C)C)c(C)c3C)c2cc1OC [Example 193, 4-(Dimethylamino)butyl N-{4-[(6,7-dimethoxy-4-quinolyl)oxy]-2,3-dimethylphenyl}carbamate] | 0.057 |

Next, values leading:

| IC50 [µM] | Compound |
| --- | --- |
| > 0.1 | 1-[3-(Trifluoromethoxy)phenyl]ethyl N-{4-[(6,7-dimethoxy-4-quinolyl)oxy]-2,3-dimethylphenyl}carbamate [Example 181] |
| 0.056 | 4-(Dimethylamino)butyl N-{4-[(6,7-dimethoxy-4-quinolyl)oxy]phenyl}carbamate [Example 192] |
| 0.012 | COc1cc2ncnc(Oc3ccc(NC(=O)OC(C)c4ccc(F)cc4)c(Cl)c3)c2cc1OC (stereo not shown) [Example 106, 1-(4-Fluorophenyl)ethyl N-{2-chloro-4-[(6,7-dimethoxy-4-quinazolinyl)oxy]phenyl}carbamate] |
| > 0.1 | COc1cc2nccc(Oc3cc(C)c(NC(=O)Sc4ccc(Cl)cc4C)cc3C)c2cc1OC [Example 178, 4-Chloro-2-methylphenyl{4-[(6,7-dimethoxy-4-quinolyl)oxy]-2,5-dimethylanilino}methanethioate] |
| 0.046 | CCCC(OC(=O)Nc1ccc(Oc2ccnc3cc(OC)c(OC)cc23)c(C)c1C)c1ccccc1 (stereo not shown) [Example 185, 1-Phenylbutyl N-{4-[(6,7-dimethoxy-4-quinolyl)oxy]-2,3-dimethylphenyl}carbamate] |
| 0.063 | CCCC(OC(=O)Nc1cc(C)c(Oc2ccnc3cc(OC)c(OC)cc23)cc1C)c1ccccc1 (stereo not shown) [Example 186, 1-Phenylbutyl N-{4-[(6,7-dimethoxy-4-quinolyl)oxy]-2,5-dimethylphenyl}carbamate] |
| 0.066 | COc1cc2nccc(Oc3ccc(NC(=O)OC(c4ccccc4)C(C)C)cc3)c2cc1OC (stereo not shown) [Example 195, 2-Methyl-1-phenylpropyl N-{4-[(6,7-dimethoxy-4-quinolyl)oxy]phenyl}carbamate] |
| 0.049 | COc1cc2nccc(Oc3ccc(NC(=O)OC(c4ccccc4)C(C)C)c(C)c3C)c2cc1OC (stereo not shown) [Example 196, 2-Methyl-1-phenylpropyl N-{4-[(6,7-dimethoxy-4-quinolyl)oxy]-2,3-dimethylphenyl}carbamate] |

What follows are compounds tested against T2, c-kit (Homo sapiens, UniProt P10721) (assay: Inhibitory activity against c-kit autophosphorylation (MO7e cells, h-SCF)). Conditions: MO7e cells, h-SCF stimulation; read-out: c-kit IC50.
T2 construct: MO7e (human megakaryocytic leukemia cell line) which had been arrested for 20 hr; endogenous in cells; host or cells: MO7e human megakaryocytic leukemia cell line
T2 sequence (P10721 26-976): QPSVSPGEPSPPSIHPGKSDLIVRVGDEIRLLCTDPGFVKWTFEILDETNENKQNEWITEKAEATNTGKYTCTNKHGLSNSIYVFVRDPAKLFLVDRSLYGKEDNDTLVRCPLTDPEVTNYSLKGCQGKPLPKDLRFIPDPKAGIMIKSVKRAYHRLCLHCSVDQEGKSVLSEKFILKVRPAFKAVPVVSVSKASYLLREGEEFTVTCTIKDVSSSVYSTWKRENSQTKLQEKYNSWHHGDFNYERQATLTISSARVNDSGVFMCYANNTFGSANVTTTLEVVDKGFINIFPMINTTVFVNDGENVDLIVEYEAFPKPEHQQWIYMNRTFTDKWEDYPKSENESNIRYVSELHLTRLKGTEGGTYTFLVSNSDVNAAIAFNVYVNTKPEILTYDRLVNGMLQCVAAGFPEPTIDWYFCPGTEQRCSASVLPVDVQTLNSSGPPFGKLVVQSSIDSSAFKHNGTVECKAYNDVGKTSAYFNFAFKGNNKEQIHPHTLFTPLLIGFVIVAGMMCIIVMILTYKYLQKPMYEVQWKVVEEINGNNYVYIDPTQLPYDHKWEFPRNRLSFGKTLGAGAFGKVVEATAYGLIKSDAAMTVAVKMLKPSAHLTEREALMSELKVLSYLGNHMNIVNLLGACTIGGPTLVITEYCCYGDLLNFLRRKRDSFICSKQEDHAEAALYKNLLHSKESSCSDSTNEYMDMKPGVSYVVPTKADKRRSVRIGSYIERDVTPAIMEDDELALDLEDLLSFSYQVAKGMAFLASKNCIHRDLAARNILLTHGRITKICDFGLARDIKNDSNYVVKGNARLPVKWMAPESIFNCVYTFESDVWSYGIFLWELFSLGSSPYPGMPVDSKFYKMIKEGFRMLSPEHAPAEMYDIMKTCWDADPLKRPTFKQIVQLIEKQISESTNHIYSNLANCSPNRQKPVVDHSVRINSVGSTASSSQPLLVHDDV
Assay type: cell-based
Summary of the method: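 Ligand-induced c-kit tyrosine phosphorylation is measured in MO7e cells that were quiesced 20 hr and preincubated with compound for 1 hr prior to a 5 min pulse of 50 ng/ml human SCF. Phospho-c-kit is detected by anti-phosphotyrosine capture ELISA, A450.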

| Compound | IC50 [µM] |
| --- | --- |
| COc1cc2nccc(Oc3ccc(NC(=S)NC(=O)c4cccc(C)c4)cc3C)c2cc1OC [Example 1110, N-{4-[(6,7-Dimethoxy-4-quinolyl)oxy]-3-methylphenyl}-N′-(3-methylbenzoyl)thiourea] | 0.113 |
| COc1ccc(C(=O)NC(=S)Nc2ccc(Oc3ccnc4cc(OC)c(OC)cc34)c(F)c2)c(OC)c1 [Example 1113, N-(2,4-Dimethoxybenzoyl)-N′-{4-[(6,7-dimethoxy-4-quinolyl)oxy]-3-fluorophenyl}thiourea] | 0.785 |
| COc1cc2nccc(Oc3ccc(NC(=S)NC(=O)c4ccc(Cl)cc4Cl)cc3Cl)c2cc1OC [Example 1114, N-{3-Chloro-4-[(6,7-dimethoxy-4-quinolyl)oxy]phenyl}-N′-(2,4-dichlorobenzoyl)thiourea] | 0.674 |
| COc1cc2nccc(Oc3ccc(NC(=S)NC(=O)CCc4ccccc4C)cc3F)c2cc1OC [Example 1134, N-{4-[(6,7-Dimethoxy-4-quinolyl)oxy]-3-fluorophenyl}-N′-[3-(2-methylphenyl)propanoyl]thiourea] | 0.169 |

Other lines, results leading:

| IC50 [µM] | Compound |
| --- | --- |
| 0.353 | COc1cc2nccc(Oc3ccc(NC(=S)NC(=O)c4ccccc4)cc3C)c2cc1OC [Example 1109, N-Benzoyl-N′-{4-[(6,7-dimethoxy-4-quinolyl)oxy]-3-methylphenyl}thiourea] |
| 0.405 | COc1cc2nccc(Oc3ccc(NC(=S)NC(=O)c4ccc(Cl)cc4)cc3C)c2cc1OC [Example 1111, N-(4-Chlorobenzoyl)-N′-{4-[(6,7-dimethoxy-4-quinolyl)oxy]-3-methylphenyl}thiourea] |
| 0.878 | COc1cc2nccc(Oc3ccc(NC(=S)NC(=O)c4cc(Cl)cc(Cl)c4)cc3Cl)c2cc1OC [Example 1116, N-{3-Chloro-4-[(6,7-dimethoxy-4-quinolyl)oxy]phenyl}-N′-(3,5-dichlorobenzoyl)thiourea] |
| 0.778 | COc1cc2nccc(Oc3ccc(NC(=S)NC(=O)c4ccc(Cl)c(Cl)c4)cc3)c2cc1OC [Example 1120] |
| < 0.03 | COc1cc2nccc(Oc3ccc(NC(=S)NC(=O)c4ccc(F)cc4F)c(F)c3)c2cc1OC [Example 1121, N-(2,4-Difluorobenzoyl)-N′-{4-[(6,7-dimethoxy-4-quinolyl)oxy]-2-fluorophenyl}thiourea] |
| 0.548 | COc1cc2nccc(Oc3ccc(NC(=S)NC(=O)c4ccc5c(c4)OCO5)cc3F)c2cc1OC [Example 1145, N-(1,3-Benzodioxol-5-ylcarbonyl)-N′-{4-[(6,7-dimethoxy-4-quinolyl)oxy]-3-fluorophenyl}thiourea] |

Same assay, conditions: Mo7e, figure in parentheses in −( ); at 1000 nM

| Compound | inhibition at 1 µM [%] |
| --- | --- |
| COc1cc2nccc(Oc3ccc(NC(=S)NC(=O)c4c(Cl)cccc4Cl)cc3F)c2cc1OC [Example 1112, N-(2,6-Dichlorobenzoyl)-N′-{4-[(6,7-dimethoxy-4-quinolyl)oxy]-3-fluorophenyl}thiourea] | 19 |
| COc1cc2nccc(Oc3ccc(NC(=S)NC(=O)c4c(Cl)cccc4Cl)cc3)c2cc1OC [Example 1118, N-(2,6-Dichlorobenzoyl)-N′-{4-[(6,7-dimethoxy-4-quinolyl)oxy]phenyl}thiourea] | 0 |
| COc1ccc(C(=O)NC(=S)Nc2ccc(Oc3ccnc4cc(OC)c(OC)cc34)cc2)c(OC)c1 [Example 1119, N-(2,4-Dimethoxybenzoyl)-N′-{4-[(6,7-dimethoxy-4-quinolyl)oxy]phenyl}thiourea] | 27 |

Continued, values first:

| inhibition at 1 µM [%] | Compound |
| --- | --- |
| 10 | COc1cc2nccc(Oc3ccc(NC(=S)NC(=O)c4c(Cl)cccc4Cl)cc3Cl)c2cc1OC [Example 1115, N-{3-Chloro-4-[(6,7-dimethoxy-4-quinolyl)oxy]phenyl}-N′-(2,6-dichlorobenzoyl)thiourea] |
| 31 | COc1ccc(C(=O)NC(=S)Nc2ccc(Oc3ccnc4cc(OC)c(OC)cc34)c(Cl)c2)c(OC)c1 [Example 1117, N-{3-Chloro-4-[(6,7-dimethoxy-4-quinolyl)oxy]phenyl}-N′-(2,4-dimethoxybenzoyl)thiourea] |
| 16 | COc1cc2ncnc(Oc3ccc(NC(=S)NC(=O)c4ccc(Cl)cc4Cl)cc3)c2cc1OC [Example 1207, N-(2,4-Dichlorobenzoyl)-N′-{4-[(6,7-dimethoxy-4-quinazolinyl)oxy]phenyl}thiourea] |
| 22 | COc1cc2nccc(Oc3ccc(NC(=S)NC(=O)c4ccc(F)cc4F)cc3Cl)c2cc1OC [Example 1208, N-{3-Chloro-4-[(6,7-dimethoxy-4-quinolyl)oxy]phenyl}-N′-(2,4-difluorobenzoyl)thiourea] |

Same assay, conditions: figure in parentheses in −( ); at 1000 nM; 1 µM

| c-kit inhibition (%) at 1000 nM | Compound |
| --- | --- |
| −(27) % | COc1cc2nccc(Oc3ccc(NC(=S)NC(=O)Cc4ccccc4)c(C)c3C)c2cc1OC [Example 1206, N-{4-[(6,7-Dimethoxy-4-quinolyl)oxy]-2,3-dimethylphenyl}-N′-(2-phenylacetyl)thiourea] |
